Reference: US9549558B2, “Herbicidal azines” (BASF SE, priority 2012, dated 2017)

Assays:
Assay type in all cases: in vivo
[1] = tested on: AMARE (Amaranthus retroflexus); assay: greenhouse post-emergence herbicidal test
Outline: (§1)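 Post-emergence greenhouse test on plants grown to 3–15 cm in loamy sand (~3.0% humus), sprayed with active ingredient suspended or emulsified in water. Plants held at 10-25 °C or 20-35 °C by species for 2 to 4 weeks, then damage scored visually 0–100 (100 = complete destruction of aerial parts, 0 = no damage).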

STEME (Stellaria media) [2] = assay: greenhouse post-emergence herbicidal test; settings: 0.125 kg/ha
Outline: as §1

[3] = tested on: CHEAL (Chenopodium album); assay: greenhouse post-emergence herbicidal test; settings: 0.125 kg/ha
Outline: as §1

[4] = tested on: ECHCG (Echinocloa crus-galli); assay: greenhouse post-emergence herbicidal test
Outline: as §1

[5] = tested on: ABUTH (Abutilon theophrasti); assay: greenhouse post-emergence herbicidal test
Outline: as §1

[6] = tested on: GERDI (Geranium dissectum); assay: greenhouse post-emergence herbicidal test
Outline: as §1

[7] = tested on: POLCO (Polygonum convolvulus); assay: greenhouse post-emergence herbicidal test; settings: 0.062 kg/ha
Outline: as §1

[8] = tested on: ECHCG (Echinocloa crus-galli); assay: greenhouse pre-emergence herbicidal test; settings: 125 g/ha
Outline: (§2)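 Sow each species separately in loamy sand (approx. 3.0% humus), then spray the water-suspended or emulsified compound at once. Irrigate gently, cover with transparent hoods until rooted, hold at 10-25° C. or 20-35° C., and rate injury 0-100 over 2 to 4 weeks.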

SETVI (Setaria viridis) = assay: greenhouse pre-emergence herbicidal test; settings: 125 g/ha
Outline: as §2

STEME (Stellaria media) [9] = assay: greenhouse pre-emergence herbicidal test; settings: 125 g/ha
Outline: as §2

SMILES: CC(C)(Cl)c1nc(N)nc(Nc2c(F)c(F)c(F)c(F)c2F)n1 [Example 1, 6-(1-chloro-1-methyl-ethyl)-N4-(2,3,4,5,6-pentafluorophenyl)-1,3,5-triazine-2,4-diamine]
- herbicidal activity ([1]; 0.125 kg/ha): very good (a very good herbicidal activity is given at values of at least 85)
- herbicidal activity (STEME (Stellaria media) [2]): very good (a very good herbicidal activity is given at values of at least 85)

SMILES: CC(C)(F)c1nc(N)nc(Nc2c(F)c(F)cc(F)c2F)n1 [Example 2, 6-(1-Fluoro-1-methyl-ethyl)-N4-(2,3,5,6-tetrafluorophenyl)-1,3,5-triazine-2,4-diamine]
- herbicidal activity [3]: very good (a very good herbicidal activity is given at values of at least 85)
- herbicidal activity ([4]; 0.125 kg/ha): very good (a very good herbicidal activity is given at values of at least 85)

SMILES: CC(C)c1nc(N)nc(Nc2c(F)c(F)c(F)c(F)c2F)n1 [Example 7]
- herbicidal activity ([5]; 0.125 kg/ha): very good (a very good herbicidal activity is given at values of at least 85)
- herbicidal activity ([6]; 0.125 kg/ha): very good (a very good herbicidal activity is given at values of at least 85)

SMILES: CC(F)(F)c1nc(N)nc(Nc2c(F)c(F)c(F)c(F)c2F)n1 [Example 9]
- herbicidal activity ([5]; 0.062 kg/ha): very good (a very good herbicidal activity is given at values of at least 85)
- herbicidal activity ([6]; 0.062 kg/ha): very good (a very good herbicidal activity is given at values of at least 85)

SMILES: CC(C)(F)c1nc(N)nc(Nc2c(F)ccc(F)c2F)n1 [Example 27]
- herbicidal activity ([1]; 0.062 kg/ha): very good (a very good herbicidal activity is given at values of at least 85)
- herbicidal activity ([4]; 0.062 kg/ha): very good (a very good herbicidal activity is given at values of at least 85)

SMILES: CC(C)(F)c1nc(N)nc(Nc2c(F)ccc(Cl)c2F)n1 [Example 32]
- herbicidal activity ([6]; 0.062 kg/ha): very good (a very good herbicidal activity is given at values of at least 85)
- herbicidal activity [7]: very good (a very good herbicidal activity is given at values of at least 85)

SMILES: CCC(F)(CC)c1nc(N)nc(Nc2c(F)c(F)c(F)c(F)c2F)n1 [Example 49]
- herbicidal activity [3]: very good (a very good herbicidal activity is given at values of at least 85)
- herbicidal activity ([6]; 0.125 kg/ha): very good (a very good herbicidal activity is given at values of at least 85)

SMILES: CC(C)(C)c1nc(N)nc(Nc2c(F)c(F)c(F)c(F)c2F)n1 [Example 52]
- herbicidal activity ([5]; 0.062 kg/ha): very good (a very good herbicidal activity is given at values of at least 85)
- herbicidal activity ([6]; 0.062 kg/ha): very good (a very good herbicidal activity is given at values of at least 85)

SMILES: Nc1nc(Nc2c(F)c(F)c(F)c(F)c2F)nc(C2CCC2)n1 [Example 57]
- herbicidal activity ([1]; 0.062 kg/ha): very good (a very good herbicidal activity is given at values of at least 85)
- herbicidal activity ([4]; 0.062 kg/ha): very good (a very good herbicidal activity is given at values of at least 85)

SMILES: CC(c1nc(N)nc(Nc2c(F)c(F)c(F)c(F)c2F)n1)C1CC1 (stereo not drawn) [Example 63]
- herbicidal activity [8]: very good (a very good herbicidal activity is given at values of at least 85)
- herbicidal activity (SETVI (Setaria viridis)): very good (a very good herbicidal activity is given at values of at least 85)
- herbicidal activity (STEME (Stellaria media) [9]): very good (a very good herbicidal activity is given at values of at least 85)

SMILES: Nc1nc(Nc2ccc(Br)cc2F)nc(C(F)F)n1 [Example 157]
- herbicidal activity ([5]; 500 g/ha): very good (a very good herbicidal activity is given at values of at least 85)
- herbicidal activity ([4]; 500 g/ha): very good (a very good herbicidal activity is given at values of at least 85)

SMILES: CC(C)(F)c1nc(N)nc(Nc2ccc(C(=O)O)cc2F)n1 [Example 173]
- herbicidal activity ([4]; 500 g/ha): good (a good herbicidal activity is given at values of at least 70)

SMILES: CC(C)(F)c1nc(N)nc(Nc2c(F)c(F)cc(-c3ccccc3)c2F)n1 [Example 192]
- herbicidal activity ([5]; 1000 g/ha): very good (a very good herbicidal activity is given at values of at least 85)
- herbicidal activity ([1]; 1000 g/ha): very good (a very good herbicidal activity is given at values of at least 85)
- herbicidal activity ([4]; 1000 g/ha): very good (a very good herbicidal activity is given at values of at least 85)
